The test system of data set [1] is human recombinant LSD1. The format is biochemical.
For data set [2], the system named is ACE2 (pan-methylation lysine), Caco-2 cells. The class given is cell-based, human.
For data set [3], the system named is SARS-CoV-2 spike protein at Caco-2 cell surface. The format is cell-based.
For data set [4], the system named is ACE2-SARS-CoV-2 spike protein interaction, Caco-2 cells. The class given is cell-based, human / SARS-CoV-2.
Data set [5] has as its system SARS-CoV-2. The format is cell-based.
Data set [6] concerns SARS-CoV-2. The format is cell-based. The source holds these as a separate data set.
Data set [7] concerns SARS-CoV-2-infected Caco-2 cells. The format is cell-based, human.
Data set [8] shares this test system. The format is cell-based, human. This is another data set of the same source.
For data set [9] the test system is unchanged. The format is cell-based, human / SARS-CoV-2.
The subject of data set [10] is ACE2-IMPα3 colocalization, SARS-CoV-2-infected Caco-2 cells. The class given is cell-based, human.
The test system of data set [11] is Caco-2 cells.
Data set [12] has as its system Caco-2 cells. The source holds these as a separate data set.
The test system of a further data set is LSD1. Conditions: cited from earlier work.
Data set [13] has as its system SARS-CoV-2-S-driven entry, Caco-2 cells. Conditions: cited from earlier work.
Another data set deals with COVID-19. Conditions: cited from earlier work.
For data set [14], the system named is nuclear LSD1/CoREST complex. Conditions: cited from earlier work.
The test system of data set [15] is T cells in human breast cancer. The conditions noted are these: cited from earlier work.
The subject of data set [16] is human recombinant LSD1. The experiment in a line: LSD1 demethylation assay with di-methylated ACE2 peptides as substrates. The format is biochemical. Conditions: for Demethylation of NLS peptides by LSD1 (rank order): LSD1 fluorimetric kit, background subtracted, one-way ANOVA P < 0.0001 (Fig. 4d).
The subject of another data set is ACE2, Caco-2 cells. The format is cell-based, human. The conditions noted are these: Caco-2, FAM5-tagged NACE2i, single treatment, after 8 h and up to 96 h; P < 0.0001 (Fig. 5b).
Data set [17] concerns Caco-2 cells. The class given is physicochemical, human. Conditions: FAM5-tagged peptide, single treatment, Caco-2 culture, over 96 h, fluorescence imaging.
Data set [18] relates to SARS-CoV-2. Conditions: cited from earlier work.

“Also recorded” adds a separate entry of the source. Where a name gives a salt, the structure may show the parent alone. Read-outs that look alike come from different tables or passages of the source. Where no end group is shown, it is not given here. [ ]: non-standard residue; d: D form. Lys(Me2) = CN(C)CCCC[C@H](N)C(=O)O

Regarding `N[C@@H]1C[C@H]1c1ccccc1` (racemic) [tranylcypromine], the “ACE2 lysine 31 (ACE2me2 peptide) demethylation” value in the data set with human recombinant LSD1 [1] is listed as “significantly decreased ACE2 lysine 31 demethylation”.
For the molecule `O=C(O)c1ccc(CN2CCC(CN[C@@H]3C[C@H]3c3ccccc3)CC2)cc1` [GSK, GSK2879552], the “ACE2 lysine 31 (ACE2me2 peptide) demethylation” value in the data set with human recombinant LSD1 [1] is “further decreases were observed”. Also, the “association between ACE2 and pan-methylation lysine antibody (PLA)” value in data set [2] is “increased the association between ACE2 and pan-methylation lysine antibody in infected cells”. In addition, in [3], the “spike protein expression at the cell surface” value is on record as “to a greater extent GSK treatment, reduced spike protein expression at the cell surface of infected cells”. For the same molecule, in data set [4], the “ACE2/spike interaction at cell surface (PLA)” value was “significantly decreased interaction”. The “viral RNA levels in culture supernatants” value in the data set with SARS-CoV-2 [5] is reported as “negligibly reduced viral RNA levels in culture supernatants”. In the data set with SARS-CoV-2 [6], the “inhibition of viral RNA in infected cells (comparison)” value is recorded as “greatest inhibition of viral RNA in infected cells” and the “viral load, % virus-aligned reads over total reads” value turned out to be 1%. Further, in data set [7], the “enriched Reactome pathways vs control” value is listed as “downregulated genes enriched in the IFN pathway” and the “number of differentially expressed genes vs control” value is listed as 73 DEGs. In data set [8], the “LSD1, ACE2, and TMPRSS2 transcript” value is recorded as “remained unaltered”; the “RIG1, MDA5, and ISG15 mRNA” value is “remained unaltered”. In [9], the “SARS-CoV-2 spike protein expression” value is “decreased SARS-CoV-2 spike protein expression”; the “co-localization of ACE2 and SARS-CoV-2 spike protein” value was “significantly reduced the co-localization of ACE2 and SARS-CoV-2 spike protein”. In addition, in [10], the IMPα3 nuclear expression result is reported as “no effect on IMPα3 nuclear expression”; the “co-localization of ACE2 and IMPα3 (PCC)” value is reported as “minimal effect”. Besides, in the data set on Caco-2 cells [11], the cell proliferation entry was “neither altered cell proliferation”. This molecule yielded a cell viability with Caco-2 cells [12] (uninfected Caco-2, up to 72 h, n=3 (Fig. S2d)) of more than 90%. For the same molecule, the “inhibition of LSD1 catalytic activity (compared with phenelzine)” value with LSD1 was “significantly more potent inhibitor of LSD1 catalytic activity than phenelzine”.
For the molecule `C/C(=N\NC(=O)c1cccc(S(=O)(=O)N2CCOCC2)c1)c1cc(Cl)ccc1O` [SP2509], in the data set with human recombinant LSD1 [1] (LSD1 incubated with inhibitor 30 min at room temperature, LSD1 fluorimetric kit, 40 s intervals, one-way ANOVA P < 0.0001 (Fig. 2a)), the “ACE2 lysine 31 (ACE2me2 peptide) demethylation” value is “showed the highest inhibitory potency of all the LSD1 inhibitors in vitro”.
In the case of `CN(C)C(=O)COC(=O)Cc1ccc(OC(=O)c2ccc(NC(=N)N)cc2)cc1` [camostat mesylate], the SARS-CoV-2-S-driven entry result in [13] was “partially blocked SARS-CoV-2-S-driven entry into Caco-2 cells”.
Turning to `CCN(CCO)CCCC(C)Nc1ccnc2cc(Cl)ccc12` (stereo not shown) [hydroxychloroquine], the “clinical outcome in COVID-19” value in the data set on COVID-19 is recorded as “lack of effect or even increased harm”.
Regarding `NNCCc1ccccc1` [phenelzine], in data set [3], the “spike protein expression at the cell surface” value is “reduced spike protein expression at the cell surface of infected cells”. Moreover, the “viral RNA levels in culture supernatants” value with SARS-CoV-2 [5] is listed as “negligibly reduced viral RNA levels in culture supernatants”. Besides, in data set [7], the “DUSP1, DUSP6, DUPS8 expression” value was “highly upregulated”; the IRF7 gene expression result is “upregulation of IRF7 gene expression”; the “enriched Reactome pathways vs control” value was “translation and MAPK pathways were enriched; also recorded: post-transcriptional protein phosphorylation and amino acid synthesis and interconversion (transamination) processes were significantly enriched; also recorded: regulates MAPK signaling-related pathways”; the “number of differentially expressed genes vs control” value turned out to be 1059 DEGs. In addition, in [8], the “IFNβ and OASL expression” value is listed as “further increased”; the “LSD1, ACE2, and TMPRSS2 transcript” value is on record as “remained unaltered”; the “RIG1, MDA5, and ISG15 mRNA” value was “remained unaltered”. Moreover, in [9], the “SARS-CoV-2 spike protein expression” value was “decreased SARS-CoV-2 spike protein expression”; the “co-localization of ACE2 and SARS-CoV-2 spike protein” value is “significantly reduced the co-localization of ACE2 and SARS-CoV-2 spike protein”. Moreover, in [10], the IMPα3 nuclear expression entry is “no effect on IMPα3 nuclear expression”; the “co-localization of ACE2 and IMPα3 (PCC)” value is reported as “minimal effect”. Moreover, the cell proliferation result in the data set on Caco-2 cells [11] is reported as “neither altered cell proliferation”. Besides, in the data set with Caco-2 cells [12], the cell viability is reported as more than 90%. The “disruption of nuclear LSD1/CoREST complex” value in data set [14] is “can disrupt the nuclear LSD1/CoREST complex”. In [15], the T cell responses entry is reported as “epigenetically restore T cell responses in human breast cancer”.
For QAKTFLD[Lys(Me2)]FNHEAED [ACE2me2], in the data set with human recombinant LSD1 [16] (ACE2me2 peptide, lysine 31, fluorescence), the “Demethylation of peptide by LSD1 (substrate)” value is “efficiently de-methylated”.
As to “TGIRDRKKKNKARS-(FAM5) [FAM5-tagged NACE2i]”, the “nuclear ACE2 expression over time” value with ACE2, Caco-2 cells is “significantly inhibited nuclear ACE2 expression after 8 h and up to 96 h”. In the data set with Caco-2 cells [17], the peptide stability result is reported as “stable over time”.
For TGIRDRKK[Lys(Me2)]NKARS [PEP3], the “Demethylation of NLS peptides by LSD1 (rank order)” value in the data set on human recombinant LSD1 [16] was “followed by PEP3, PEP2, and PEP1”.
Still for that read-out and setting: as for TGIRDRK[Lys(Me2)]KNKARS [PEP2], the entry is “followed by PEP3, PEP2, and PEP1”.
The same measure, in the same setting: as for TGIRDR[Lys(Me2)]KKNKARS [PEP1], the entry is “followed by PEP3, PEP2, and PEP1”; as for TGIRDR[Lys(Me2)]K[Lys(Me2)]NKARS [PEP4], “greatest demethylation”.
Consider ivermectin, for which the SARS-CoV-2 replication result in the data set on SARS-CoV-2 [18] is on record as “inhibits SARS-CoV-2 replication”.
Take tocilizumab: the “clinical outcome in COVID-19” value with COVID-19 is “mixed results in clinical studies”.

B1: sarilumab (antibody, chains of the INN, looked up, V domains shown)
VH: EVQLVESGGGLVQPGRSLRLSCAASRFTFDDYAMHWVRQAPGKGLEWVSGISWNSGRIGYADSVKGRFTISRDNAENSLFLQMNGLRAEDTALYYCAKGRDSFDIWGQGTMVTVSS
VL: DIQMTQSPSSVSASVGDRVTITCRASQGISSWLAWYQQKPGKAPKLLIYGASSLESGVPSRFSGSGSGTDFTLTISSLQPEDFASYYCQQANSFPYTFGQGTKLEIK
As for B1, the “clinical outcome in COVID-19” value in the data set with COVID-19 was “mixed results in clinical studies”.

The term cell viability denotes the share of living cells, or the viability signal relative to a control. A high value points to less harm to the cells.

Source of the values: paper PMC8143069 (Cell Discovery, 2021).
